Values quoted from earlier work, collected in patent US20080004279A1, “Use of C-Kit Inhibitors for Treating Plasmodium Related Diseases” (priority 2004, published 2008).
pIC50: −log10 of the molar value.

What was measured:
[1] = system: GPI-induced NO production in macrophages and vascular endothelial cells

CCN(CC)CCCC(C)Nc1ccnc2cc(Cl)ccc12 (stereo not drawn) [Chloroquine]
mode of inhibition of PTK with respect to ATP (membrane bound PTK; kinetic studies): noncompetitive
mode of inhibition of PTK with respect to peptide substrate (membrane bound PTK; kinetic studies): competitive inhibitor
pIC50 (membrane bound PTK; read-out: inhibition of membrane bound PTK activity, IC50, dose dependent, P. falciparum): 4.35

O=c1c(-c2ccc(O)cc2)coc2cc(O)cc(O)c12 [genistein]
release of NO by parasite extracts and by GPI ([1]; GPI alone or in combination with IFN-gamma): inhibited

S=C(S)N1CCCC1 [pyrrolidine dithiocarbamate]
GPI-induced NO production / release [1]: blocked

calphostin C
GPI-induced NO production / release [1]: blocked
